Test results as given in patent US11572365B2, “Crystal form of upadacitinib, preparation method therefor, and use thereof” (CRYSTAL PHARMACEUTICAL (SUZHOU) CO., LTD., priority 2021, dated 2023).
Values after ≈ are worked out from the molar mass of the structure shown.

Key:
Format in all cases: physicochemical
[1] = Kinetic solubility in FeSSIF, FaSSIF and pH 7.4 PBS (HPLC); conditions: for solubility at 24 h / solubility at 48 h: thermodynamic from solid
Method: The method parameters of kinetic solubility test in the present disclosure are as follows:
(§1) Approximately 15-30 mg of Form CSVI in the present disclosure was suspended into 1.8 mL of FeSSIF, 1.8 mL of FaSSIF and 1.8 mL of pH=7.4 PBS. After equilibration for 24 hours and 48 hours, the concentration of upadacitinib in saturated solutions were tested by HPLC and the results are listed in Table 2.
as §1, with “CSVII” for “CSVI”, “was” for “were”, “5.” for “2.”

[2] = Stability of drug substance on storage (XRPD crystalline form, HPLC purity); conditions: for Chemical purity during storage: storage conditions of the stability test
Method: The method parameters for related substances test in the present disclosure are as follows:
(§2) Approximately 5 mg of Form CSVI in the present disclosure was stored under 40° C./75% RH and 60° C./75% RH conditions. The purity and crystalline form were tested before and after storage by HPLC and XRPD. The results are listed in Table 3 and the XRPD overlay is substantially as depicted in FIG. 4.
as §2, with “CSVII” for “CSVI”, “under 25° C./60% RH,” for “under”, “6” for “3”, “10.” for “4.”

[3] = DVS humidity cycle 0% RH-95% RH-0% RH, crystalline form by XRPD; conditions: XRPD before and after
Method: Dynamic Vapor Sorption (DVS) is measured via an SMS (Surface Measurement Systems Ltd.) intrinsic DVS instrument. Its control software is DVS-Intrinsic control software. Typical parameters for DVS test are as follows: • Temperature: 25° C. • Gas and flow rate: N2, 200 mL/min • RH range: 0% RH to 95% RH
It can be seen that Form CSVI has good stability under accelerated conditions. Form CSVI is stable for at least 1 month under 60° C./75% RH (sealed) condition. It can be seen that Form CSVI has good stability under more stressed condition as well. Approximately 10 mg of Form CSVI in the present disclosure underwent a humidity cycle of 0% RH-95% RH-0% RH with a dynamic vapor sorption (DVS) analyzer.
Approximately 10 mg of Form CSVII in the present disclosure underwent a humidity cycle of 0% RH-95% RH-0% RH with a dynamic vapor sorption (DVS) analyzer.

[4] = Crystalline form before and after formulation process (XRPD)
[5] = 25° C./60% RH, Sealed, 6 months
[6] = 40° C./75% RH, Sealed, 6 months

## CC[C@@H]1CN(C(=O)NCC(F)(F)F)C[C@@H]1c1cnc2cnc3[nH]ccc3n12 [Form CSVII, (3S,4R)-3-ethyl-4-(3H-imidazo[1,2-a]pyrrolo[2,3-e]pyrazin-8-yl)-N-(2,2,2-trifluoroethyl) pyrrolidine-1-carboxamide]
[1]; FaSSIF (pH 6.5, 37° C.), 24 hours
  Solubility: 2020 µg/mL (≈ 5.31 mM)
[1]; FaSSIF (pH 6.5, 37° C.), 48 hours
  Solubility: 2170 µg/mL (≈ 5.7 mM)
[1]; FeSSIF (pH 5.0, 37° C.), 24 hours
  Solubility: 2280 µg/mL (≈ 5.99 mM)
[1]; FeSSIF (pH 5.0, 37° C.), 48 hours
  Solubility: 2470 µg/mL (≈ 6.49 mM)
[1]; pH 7.4, 25° C., 24 hours
  Solubility: 920 µg/mL (≈ 2.42 mM)
[1]; pH 7.4, 25° C., 48 hours
  Solubility: 850 µg/mL (≈ 2.23 mM)
[2]; 25° C./60% RH, Open, 6 months
  Purity: 99.91%
  Solid form: Form CSVII
[2]; [5]
  Purity: 99.92%
  Solid form: Form CSVII
[2]; [6]
  Purity: 99.92%
  Solid form: Form CSVII
[2]; 60° C./75% RH, Sealed, 1 month
  Purity: 99.92%
  Solid form: Form CSVII
[2]; Initial
  Purity: 99.92%
  Solid form: Form CSVII
[2]
  Chemical purity during storage: above 99.9%
[3]
  Form change after DVS test: no form change is observed
[4]
  Physical stability after formulation procedure: physically stable

## CC[C@@H]1CN(C(=O)NCC(F)(F)F)C[C@@H]1c1cnc2cnc3[nH]ccc3n12 [Form CSVI, (3S,4R)-3-ethyl-4-(3H-imidazo[1,2-a]pyrrolo[2,3-e]pyrazin-8-yl)-N-(2,2,2-trifluoroethyl) pyrrolidine-1-carboxamide]
[1]; FaSSIF, 37 °C, pH 6.5, fassif, FaSSIF (pH 6.5, 37° C.), 24 hours
  solubility at 24 h: 1870 µg/mL (≈ 4.92 mM)
[1]; FaSSIF, 37 °C, pH 6.5, fassif, FaSSIF (pH 6.5, 37° C.), 48 hours
  solubility at 48 h: 1710 µg/mL (≈ 4.5 mM)
[1]; FeSSIF, 37 °C, pH 5, fessif, FeSSIF (pH 5.0, 37° C.), 24 hours
  solubility at 24 h: 2200 µg/mL (≈ 5.78 mM)
[1]; FeSSIF, 37 °C, pH 5, fessif, FeSSIF (pH 5.0, 37° C.), 48 hours
  solubility at 48 h: 2220 µg/mL (≈ 5.84 mM)
[1]; PBS, 25 °C, pH 7.4, aqueous buffer, pH 7.4, 25° C., 24 hours
  solubility at 24 h: 880 µg/mL (≈ 2.31 mM)
[1]; PBS, 25 °C, pH 7.4, aqueous buffer, pH 7.4, 25° C., 48 hours
  solubility at 48 h: 850 µg/mL (≈ 2.23 mM)
[2]; 40° C./75% RH (open)
  Time for which the form is stable (crystalline state unchanged): at least 6 months
[2]; 40° C./75% RH (sealed)
  Time for which the form is stable (crystalline state unchanged): at least 6 months
[2]; 40° C./75% RH, Open, 6 months
  Purity: 99.89%
  Solid form: Form CSVI
[2]; [6]
  Purity: 99.92%
  Solid form: Form CSVI
[2]; 60° C./75% RH (sealed)
  Time for which the form is stable (crystalline state unchanged): at least 1 month
[2]; 60° C./75% RH, Sealed, 1 month
  Purity: 99.91%
  Solid form: Form CSVI
[2]; Initial
  Purity: 99.89%
  Solid form: Form CSVI
[2]
  Chemical purity during storage: above 99.8%
[3]
  Form change after DVS test: no form change is observed
[4]
  Physical stability after formulation procedure: physically stable
